Data as given in PubChem BioAssay (NCI).
“And” between values parts separate entries of the source, which are not always exact repeats. Equal values may be shown once.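 In this assay, cells in 96-well plates receive the compound at five concentrations for 48 hours. Endpoints are linearly interpolated between the surrounding concentrations. GI50 marks 50% less growth. TGI is the concentration that stops growth completely.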

Legend:
Experiment in all cases: NCI tumour cell line growth inhibition, 48 h
[1] = test system: 786-0 renal
[2] = test system: A498 renal
[3] = test system: A549 NSCLC
[4] = test system: ACHN renal
[5] = test system: BT-549 breast
[6] = test system: CAKI-1 renal
[7] = test system: CCRF-CEM leukemia
[8] = test system: COLO 205 colon
[9] = test system: DU-145 prostate
[10] = test system: EKVX NSCLC
[11] = test system: HCC-2998 colon
[12] = test system: HCT-116 colon
[13] = test system: HCT-15 colon
[14] = test system: HL-60(TB) leukemia
[15] = test system: HOP-62 NSCLC
[16] = test system: HOP-92 NSCLC
[17] = test system: HS 578T breast
[18] = test system: HT29 colon
[19] = test system: IGROV1 ovarian
[20] = test system: K-562 leukemia
[21] = test system: KM12 colon
[22] = test system: LOX IMVI melanoma
[23] = test system: M14 melanoma
[24] = test system: MALME-3M melanoma
[25] = test system: MCF7 breast
[26] = test system: MDA-MB-231 breast
[27] = test system: MDA-MB-435
[28] = test system: MOLT-4 leukemia
[29] = test system: NCI-H226 lung
[30] = test system: NCI-H23 lung
[31] = test system: NCI-H460 lung
[32] = test system: NCI-H522 lung
[33] = test system: NCI/ADR-RES ovarian
[34] = test system: OVCAR-3 ovarian
[35] = test system: OVCAR-4 ovarian
[36] = test system: OVCAR-5 ovarian
[37] = test system: OVCAR-8 ovarian
[38] = test system: PC-3 prostate
[39] = test system: RPMI-8226 leukemia
[40] = test system: RXF 393 renal
[41] = test system: SF-268 CNS
[42] = test system: SF-295 CNS
[43] = test system: SF-539 CNS
[44] = test system: SK-MEL-2 melanoma
[45] = test system: SK-MEL-28 melanoma
[46] = test system: SK-MEL-5 melanoma
[47] = test system: SK-OV-3 ovarian
[48] = test system: SN12C renal
[49] = test system: SNB-19 CNS
[50] = test system: SNB-75 CNS
[51] = test system: SR leukemia
[52] = test system: SW-620 colon
[53] = test system: T-47D breast
[54] = test system: TK-10 renal
[55] = test system: U251 CNS
[56] = test system: UACC-257 melanoma
[57] = test system: UACC-62 melanoma
[58] = test system: UO-31 renal

In the case of `O=C(NNc1nc2cc(F)c(F)cc2n2cccc12)c1cccnn1`, the GI50 [1] is reported as 0.669 µM and 0.296 µM, the TGI [1] is reported as 30 µM and 12.9 µM and the GI50 [2] is reported as 0.614 µM and 0.382 µM. For the same compound, the TGI [2] was 3.26 µM and 2.45 µM, the GI50 [3] was 0.316 µM and 0.249 µM and the TGI [3] was 30 µM and 15 µM. The GI50 [4] was 0.158 µM and 0.134 µM, the TGI [4] was 8.32 µM and 6.53 µM and the GI50 [5] was 1.4 µM and 0.271 µM. For the same compound, the TGI [5] was 30 µM and 24.8 µM, the GI50 [6] was 0.261 µM and 0.251 µM and the TGI [6] was 30 µM and 11.2 µM. The GI50 [7] was 0.0765 µM, the TGI [7] was 1.01 µM and the GI50 [8] was 0.384 µM and 0.321 µM. The TGI [8] was 30 µM and 19.1 µM, the GI50 [9] was 0.346 µM and 0.579 µM and the TGI [9] was 30 µM and 16.1 µM. For the same compound, the GI50 [10] was 0.255 µM and 0.19 µM, the TGI [10] was 30 µM and 16.1 µM and the GI50 [11] was 0.589 µM and 0.474 µM. For the same compound, the TGI [11] was 30 µM and 19.5 µM, the GI50 [12] was 0.207 µM and 0.173 µM and the TGI [12] was 30 µM and 11.9 µM. The GI50 [13] was 0.123 µM and 0.0468 µM, the TGI [13] was 30 µM and 38.3 µM and the GI50 [14] was 0.57 µM and 0.231 µM. The GI50 [15] was 0.275 µM and 0.0994 µM, the TGI [15] was 9.22 µM and 11.3 µM and the GI50 [16] was 0.398 µM. For the same compound, the TGI [16] was 8.82 µM, the GI50 [17] was 1.4 µM and 1.04 µM and the TGI [17] was 30 µM and 79 µM. The GI50 [18] was 0.644 µM and 0.542 µM, the TGI [18] was 30 µM and 29.2 µM and the GI50 [19] was 0.227 µM and 0.273 µM. The TGI [19] was 5.02 µM and 4.69 µM, the GI50 [20] was 0.374 µM and 0.323 µM and the TGI [20] was 30 µM and 3.78 µM. For the same compound, the GI50 [21] was 0.378 µM and 0.336 µM, the TGI [21] was 30 µM and 33.3 µM and the GI50 [22] was 0.247 µM and 0.156 µM. For the same compound, the TGI [22] was 1.09 µM and 5.27 µM, the GI50 [23] was 0.309 µM and 0.197 µM and the TGI [23] was 30 µM and 11.5 µM. For the same compound, the GI50 [24] was 0.771 µM and 0.811 µM, the TGI [24] was 28.7 µM and the GI50 [25] was 0.408 µM and 0.304 µM. The TGI [25] was 4.31 µM and 2.83 µM, the GI50 [26] was 0.559 µM and 0.75 µM and the TGI [26] was 30 µM and 54.7 µM. The GI50 [27] was 1.16 µM and 0.811 µM, the TGI [27] was 30 µM and 19.9 µM and the GI50 [28] was 0.178 µM and 0.136 µM. For the same compound, the GI50 [29] was 0.387 µM and 0.643 µM, the TGI [29] was 14.7 µM and 12.1 µM and the GI50 [30] was 0.654 µM. The TGI [30] was 50.8 µM, the GI50 [31] was 0.134 µM and 0.081 µM and the TGI [31] was 3.65 µM and 1.96 µM. For the same compound, the GI50 [32] was 0.747 µM and 0.262 µM, the GI50 [33] was 0.205 µM and 0.207 µM and the TGI [33] was 2.88 µM and 3.56 µM. For the same compound, the GI50 [34] was 0.227 µM and 0.243 µM, the TGI [34] was 3.71 µM and 13.2 µM and the GI50 [35] was 0.209 µM and 0.201 µM. For the same compound, the TGI [35] was 30 µM and > 100 µM, the GI50 [36] was 0.693 µM and 2.31 µM and the TGI [36] was 30 µM and 32.3 µM. For the same compound, the GI50 [37] was 0.322 µM and 0.269 µM, the TGI [37] was 30 µM and > 100 µM and the GI50 [38] was 0.201 µM and 0.419 µM. The GI50 [39] was 0.305 µM and 0.338 µM, the TGI [39] was 1.15 µM and 7.72 µM and the GI50 [40] was 0.7 µM and 0.245 µM. For the same compound, the TGI [40] was 4.13 µM and 13.2 µM, the GI50 [41] was 0.364 µM and 0.274 µM and the TGI [41] was 30 µM and > 100 µM. For the same compound, the GI50 [42] was 0.202 µM and 0.0975 µM, the TGI [42] was 5.23 µM and 6.17 µM and the GI50 [43] was 0.349 µM and 0.339 µM. For the same compound, the TGI [43] was 9.18 µM and 8.1 µM, the GI50 [44] was 0.963 µM and 1.49 µM and the TGI [44] was 30 µM and 15.5 µM. For the same compound, the GI50 [45] was 0.504 µM and 0.515 µM, the TGI [45] was 30 µM and 22.4 µM and the GI50 [46] was 0.491 µM and 0.271 µM. For the same compound, the TGI [46] was 3.35 µM and 2 µM, the GI50 [47] was 0.3 µM and 0.326 µM and the TGI [47] was 11.4 µM and 17.9 µM. The GI50 [48] was 0.468 µM and 0.646 µM, the TGI [48] was 30 µM and 31.4 µM and the GI50 [49] was 0.394 µM and 0.434 µM. For the same compound, the TGI [49] was 30 µM and > 100 µM, the GI50 [50] was 0.267 µM and 1.91 µM and the TGI [50] was 22 µM and 25.4 µM. For the same compound, the GI50 [51] was 0.175 µM and 0.0486 µM, the GI50 [52] was 0.231 µM and 0.354 µM and the TGI [52] was 30 µM and 60.3 µM. For the same compound, the GI50 [53] was 0.838 µM and 0.293 µM, the TGI [53] was 24.5 µM and 9.75 µM and the GI50 [54] was 0.263 µM and 0.294 µM. The TGI [54] was 30 µM and 29 µM, the GI50 [55] was 0.229 µM and 0.172 µM and the TGI [55] was 30 µM and 36.1 µM. For the same compound, the GI50 [56] was 0.802 µM and 0.364 µM, the TGI [56] was 2.89 µM and 11 µM and the GI50 [57] was 0.331 µM and 0.388 µM. For the same compound, the TGI [57] was 2.29 µM and 8.83 µM, the GI50 [58] was 0.105 µM and 0.0414 µM and the TGI [58] was 3.97 µM and 2.34 µM.
